Laboratory results as given in ChEMBL document CHEMBL1201862, “PubChem BioAssay data set” (2004).
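Dose response: 5 concentrations. Exposure: 48 h. Format: 96-well plates. Endpoint: linear interpolation; highest concentration if not reached. At the GI50, growth is halved.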 The source made the active and inactive calls. Cut-off read from the data, not from the text of the source: active = GI50 up to about 1.1 µM and inactive = higher.

Key:
Assay in all cases: inhibition of tumour cell growth, NCI panel, 48 h
SN12C = test system: SN12C
SF-268 = test system: SF-268
M14 = test system: M14
SNB-19 = test system: SNB-19
SK-MEL-2 = test system: SK-MEL-2
A549 = test system: A549
HCT-15 = test system: HCT-15
OVCAR-3 = test system: OVCAR-3
MDA-MB-435 = test system: MDA-MB-435
HCT-116 = test system: HCT-116
T47D = test system: T47D
KM12 = test system: KM12
TK-10 = test system: TK-10
OVCAR-5 = test system: OVCAR-5
MDA-MB-231 = test system: MDA-MB-231
PC-3 = test system: PC-3
UACC-257 = test system: UACC-257
SR = test system: SR
Malme-3M = test system: Malme-3M
U-251 = test system: U-251

| SMILES | GI50 (SN12C) | GI50 (SF-268) | GI50 (M14) | GI50 (SNB-19) | GI50 (SK-MEL-2) | GI50 (A549) | GI50 (HCT-15) [µM] | GI50 (OVCAR-3) | GI50 (MDA-MB-435) | GI50 (HCT-116) | GI50 (T47D) | GI50 (KM12) | GI50 (TK-10) | GI50 (OVCAR-5) | GI50 (MDA-MB-231) | GI50 (PC-3) | GI50 (UACC-257) | GI50 (SR) | GI50 (Malme-3M) | GI50 (U-251) |
| --- | --- | --- | --- | --- | --- | --- | --- | --- | --- | --- | --- | --- | --- | --- | --- | --- | --- | --- | --- | --- |
| N=C1OC(c2c[nH]c3ccc(OCc4ccccc4)cc23)C(O)=C1O (stereo not given) | > 100 µM (inactive) | > 100 µM (inactive) | > 100 µM (inactive) | > 100 µM (inactive) | > 100 µM (inactive) | > 100 µM (inactive) | > 100 | > 100 µM (inactive) | > 100 µM (inactive) | > 100 µM (inactive) | > 100 µM (inactive) | > 100 µM (inactive) | > 100 µM (inactive) | > 100 µM (inactive) | 74.5 µM (inactive) | > 100 µM (inactive) | > 100 µM (inactive) | > 100 µM (inactive) | > 100 µM (inactive) | > 100 µM (inactive) |
| C/C(=N\N)C(CN(C)C)C(c1ccccc1)c1c(O)c2ccccc2oc1=O (stereo not given) | > 100 µM (inactive) | > 100 µM (inactive) | > 100 µM (inactive) | > 100 µM (inactive) | > 100 µM (inactive) | > 100 µM (inactive) | > 100 | > 100 µM (inactive) | > 100 µM (inactive) | > 80 µM (inactive) | > 10 µM (inactive) | > 100 µM (inactive) | > 100 µM (inactive) | > 100 µM (inactive) | > 100 µM (inactive) | > 100 µM (inactive) | > 100 µM (inactive) | > 67.1 µM (inactive) | > 94.2 µM (inactive) | > 87.1 µM (inactive) |
| O=c1cc(-c2ccccc2)oc2c1ccc1nc3ccccc3c(O)c12 | 66.1 µM (inactive) | 39.8 µM (inactive) | > 100 µM (inactive) | > 100 µM (inactive) | > 100 µM (inactive) | 45.1 µM (inactive) | 42.3 | 79.1 µM (inactive) | > 100 µM (inactive) | 26.4 µM (inactive) | 40.8 µM (inactive) | 16.7 µM (inactive) | 60.1 µM (inactive) | > 100 µM (inactive) | > 100 µM (inactive) | > 100 µM (inactive) | > 100 µM (inactive) | 40.7 µM (inactive) | > 100 µM (inactive) | 57.3 µM (inactive) |
| Cc1ccc(CC(Cc2ccc(C)cc2C(=O)O)C(=O)O)cc1 (stereo not given) | > 100 µM (inactive) | > 100 µM (inactive) | > 100 µM (inactive) | > 100 µM (inactive) | > 100 µM (inactive) | > 100 µM (inactive) | > 100 | > 100 µM (inactive) | > 100 µM (inactive) | > 100 µM (inactive) | > 100 µM (inactive) | > 100 µM (inactive) | > 100 µM (inactive) | > 100 µM (inactive) | > 100 µM (inactive) | > 100 µM (inactive) | > 100 µM (inactive) | > 100 µM (inactive) | > 100 µM (inactive) | > 100 µM (inactive) |
| CCC1=NC(N/N=C/c2ccccc2O)=N/C1=C\c1ccccc1O | 21.3 µM (inactive) | 4.98 µM (inactive) | 10.1 µM (inactive) | 14.6 µM (inactive) | 12.6 µM (inactive) | 12.9 µM (inactive) | 2.07 | 2.89 µM (inactive) | 13.3 µM (inactive) | 7.59 µM (inactive) | 12.1 µM (inactive) | 17 µM (inactive) | 11.2 µM (inactive) | 26.7 µM (inactive) | 36.3 µM (inactive) | 15.5 µM (inactive) | 14.8 µM (inactive) | 27.9 µM (inactive) | 12.4 µM (inactive) | 19.3 µM (inactive) |
| C#C[C@]1(O)CC[C@H]2[C@@H]3CCC4=C/C(=N/OC(=O)c5cccc6c(=O)c7ccccc7[nH]c56)CC[C@@H]4[C@H]3CC[C@@]21C | > 100 µM (inactive) | 80 µM (inactive) | 56.5 µM (inactive) | > 100 µM (inactive) | 57.4 µM (inactive) | 64.3 µM (inactive) | 36.5 | 64.1 µM (inactive) | 43.1 µM (inactive) | 48.5 µM (inactive) | 29 µM (inactive) | 34.8 µM (inactive) | > 100 µM (inactive) | > 100 µM (inactive) | 51.8 µM (inactive) | 37.5 µM (inactive) | 37.2 µM (inactive) | 12.1 µM (inactive) | 45 µM (inactive) | 62.1 µM (inactive) |
| CCC1NC(=O)C(NC(=O)c2ncccc2O)C(C)OC(=O)C(c2ccccc2)NC(=O)C2CC(=O)CCN2C(=O)C(Cc2ccccc2)N(C)C(=O)C2CCCN2C1=O (stereo not given) | > 100 µM (inactive) | > 100 µM (inactive) | > 100 µM (inactive) | > 100 µM (inactive) | > 100 µM (inactive) | > 100 µM (inactive) | > 100 | > 100 µM (inactive) | > 100 µM (inactive) | > 100 µM (inactive) | > 100 µM (inactive) | > 100 µM (inactive) | > 100 µM (inactive) | > 100 µM (inactive) | > 100 µM (inactive) | > 100 µM (inactive) | > 100 µM (inactive) | 37.4 µM (inactive) | > 100 µM (inactive) | > 100 µM (inactive) |
| COC1CC(OC2C(C)OC(OC3C(C)OC(OC4C(C)OC(O[C@H]5CC[C@@]6(C)C(=CC[C@]7(O)[C@@H]6C[C@@H](OC(=O)/C=C(\C)C(C)C)[C@@]6(C)[C@]7(O)CC[C@@]6(O)C(C)=O)C5)CC4OC)CC3OC)CC2OC)OC(C)C1O (stereo not given in full) | > 12.5 µM (inactive) | > 12.5 µM (inactive) | > 12.5 µM (inactive) | > 12.5 µM (inactive) | > 12.5 µM (inactive) | > 12.5 µM (inactive) | > 12.5 | > 12.5 µM (inactive) | > 12.5 µM (inactive) | > 12.5 µM (inactive) | > 12.5 µM (inactive) | > 12.5 µM (inactive) | > 12.5 µM (inactive) | > 12.5 µM (inactive) | 11.9 µM (inactive) | > 12.5 µM (inactive) | > 12.5 µM (inactive) | > 12.5 µM (inactive) | > 12.5 µM (inactive) | > 12.5 µM (inactive) |
| CN1CC[N+](C)=C1c1ccccc1 | > 100 µM (inactive) | > 100 µM (inactive) | > 100 µM (inactive) | > 100 µM (inactive) | > 100 µM (inactive) | > 100 µM (inactive) | > 100 | > 100 µM (inactive) | > 100 µM (inactive) | > 100 µM (inactive) | > 100 µM (inactive) | > 100 µM (inactive) | > 100 µM (inactive) | > 100 µM (inactive) | > 100 µM (inactive) | > 100 µM (inactive) | > 100 µM (inactive) | > 100 µM (inactive) | > 100 µM (inactive) | > 100 µM (inactive) |
| COC(=O)C1Cc2ccc(O)c(O)c2CN1 (stereo not given) | 16.4 µM (inactive) | > 10 µM (inactive) | 16.2 µM (inactive) | 38.3 µM (inactive) | 16.7 µM (inactive) | > 100 µM (inactive) | 29.7 | 35.5 µM (inactive) | 16.7 µM (inactive) | 23.7 µM (inactive) | 71.9 µM (inactive) | 69.3 µM (inactive) | > 100 µM (inactive) | 27.5 µM (inactive) | 19.8 µM (inactive) | 26.1 µM (inactive) | 15.5 µM (inactive) | 29.1 µM (inactive) | 32.1 µM (inactive) | 17.4 µM (inactive) |
